Source: patent US11525063B2, “Fluorescent oxygen sensing ink” (The Board of Trustees of Western Michigan University, priority 2018, dated 2022)
Like-named read-outs stand apart in the source and are kept apart here.

Key:
[1] = Effect of sterilization process (H2O2 vapor treatment) on emission peak; assay type: physicochemical
Description: The fluorescent properties of two materials being encapsulated in both poly-styrene and PDMS (polydimethylsiloxane) polymer binder materials were measured to determine the suitability of the materials in an oxygen sensing system. […] Then 20 μL of mixed solution was cast onto filter paper to form a patch with a diameter of 8 mm. The patch was left in the nitrogen chamber for drying for 24-hours before testing. The PDMS encapsulated sensing patches were fabricated by firstly depositing dye solution onto the filter paper. PDMS was then added to the filter paper after the removal of the solvent. The same amount of dye was used for all samples. The fluorescence spectrum was measured using a UV spectrophotometer. A zero oxygen solution was prepared by nitrogen bubbling a 0.15 mol/L Na2SO3 solution for 30 minutes.

[2] = tested on: L-929 mouse fibroblast cells
Description: (§1) All samples were ≤0.5 mm thick and prepared as 8 mm-diameter discs (surface area of 0.50 cm^2). […] An aliquot was counted using trypan blue, and then cells were re-suspended in complete growth medium at a density of 1×10^5 cells/ml. […] After 24 h, the culture medium was removed and replaced with 100 μl of extractant. Some wells received sodium dodecyl sulfate (0 to 400 μM in EMEM; positive controls), low-density polyethylene extract (1.25 cm^2 LDPE/ml EMEM; negative control), or complete growth medium alone. Cells were then cultured for an additional 24 h. Images (mag. of 100× and 200×) of cell cultures were recorded by photo microscopy using a Olympus CK40 inverted microscope and Insight2 SPOT camera (Diagnostic Imaging) and the number of attached and dead cells were manually counted at a later time using ImageJ (NIH). […] Subsequently, cells in culture plates were washed once with Hank's Balanced Salt Solution and metabolic activity was measured by incubating cells with 100 μl of WST-1 cell proliferation reagent (Roche Diagnostics) for up to 4 h at 37° C. To determine cytotoxicity, absorbance of the medium in wells was measured at 450 nm after 2 and 4 h using a microplate reader (PHERAstar) and was corrected using absorbance measurements at 630 nm and using blanks. To check for mycoplasma contamination of the cultures, medium was saved and tested using the luminescent MycoAlert Plus mycoplasma detection kit (Lonza).
Absorbance is proportional to the amount of formazan product generated by the metabolic activity of cells. Thus, lower absorbance values correlate with increased cytotoxicity.
An aliquot was counted using trypan blue, and then cells were re-suspended in complete growth medium at a density of 1×10^5 cells/ml. […] After 24 h, the culture medium was removed and replaced with 100 μl of extractant. Some wells received sodium dodecyl sulfate (SDS; 0 to 400 μM in EMEM; positive controls), low-density polyethylene extract (1.25 cm^2 LDPE/ml EMEM; negative control) or complete growth medium alone. Cells were then cultured for an additional 24 h. Subsequently, cells in culture plates were washed once with HBSS and metabolic activity was measured by incubating cells with 100 μl of WST-1 cell proliferation reagent (Roche Diagnostics) for up to 4 h at 37° C.
To determine cytotoxicity, absorbance of the medium in wells was measured at 450 nm after 2 and/or 4 h using a microplate reader (PHERAstar) and was corrected using absorbance measurements at 630 nm and using blanks. Absorbance levels are proportional to the metabolic activity of cells and therefore inversely related to cytotoxicity. To check for mycoplasma contamination of the cultures, medium was saved and tested using the luminescent MycoAlert Plus mycoplasma detection kit (Lonza). Statistical significance was determined using analysis of variance and Tukey-Kramer post-test.

[3] = tested on: L-929 mouse fibroblast cells; conditions: 150 μM SDS in EMEM, 24 h
Description: as §1, with “To check for mycoplasma contamination of the cultures, medium was saved and tested using the luminescent MycoAlert Plus mycoplasma detection kit (Lonza).” left out

Compound	stability to H2O2 vapor treatment [1]	Emission peak After Sterilization ([1]; after H2O2 vapor treatment)	Emission peak Before Sterilization ([1]; before H2O2 vapor treatment)	cytotoxicity of extract (conclusion in words) ([2]; cells treated 24 h with extract of Sterrad-sterilized sample)	cytotoxicity of extract (conclusion in words) ([2]; cells treated 24 h with extract of Sterrad-sterilized sample, listed as ruthenium alone on paper)	Mean absorbance (corrected, 450 nm) ([2]; cells treated 24 h with extract of Sterrad-sterilized sample, lower absorbance = more cytotoxic)	metabolic activity relative to cells cultured in EMEM alone ([2]; cells treated 24 h with extract, below 70% considered cytotoxic)	Morphology score [3]	Mean absorption reading ([2]; 300 μM SDS in EMEM, 24 h)	Concentrations of SDS that were cytotoxic ([2]; mouse)
[Cl-].[Cl-].[Ru+2].c1ccc(-c2ccnc3c2ccc2c(-c4ccccc4)ccnc23)cc1.c1ccc(-c2ccnc3c2ccc2c(-c4ccccc4)ccnc23)cc1.c1ccc(-c2ccnc3c2ccc2c(-c4ccccc4)ccnc23)cc1 [Ru(dpp)3Cl2, Tris(4,7-diphenyl-1,10-phenanthroline) ruthenium II dichloride]	more vulnerable	No emission peak detected	Emission peak detected	considerable cytotoxicity	cytotoxic	0.318	38.4%	–	–	–
CCCCCCCCCCCCOS(=O)(=O)[O-].[Na+] [SDS, sodium dodecyl sulfate, reference compound]	–	–	–	–	–	–	–	2	0	above 200 μM
